# Results taken from publication PMC5935597 (Bioorganic & medicinal chemistry, 2018).
# Where two headings read alike, the source gives them in different places.
# Tests used:
# [1] = system: C. neoformans (H99 strain); conditions: read-out: C. neoformans (H99 strain) IC50; cited from earlier work
# [2] = system: H. capsulatum; conditions: read-out: H. capsulatum IC50; cited from earlier work
# [3] = system: Aspergillus fumigatus; conditions: cited from earlier work
# [4] = system: Candida albicans; conditions: cited from earlier work
# [5] = system: H. capsulatum; format: cell-based, Histoplasma capsulatum; conditions: for times more active than 41F5 against H. capsulatum: relative to 41F5; for activity against H. capsulatum evaluated comparatively at pH 5 and pH 7: pH 5 versus pH 7 (SM-S.2)
# [6] = system: C. neoformans (H99 strain); assay: microbe, parasite or virus in culture; format: cell-based, Cryptococcus neoformans
# [7] = system: Blastomyces dermatitidis; conditions: cited from earlier work
smiles,measurement,setting,value
O=C(CCC1CCCCC1)Nc1ncc(Cc2cccc3ccccc23)s1 [A],IC50,[1],> 10000 nM
same,IC50,[2],400 nM
Cc1ccc(Oc2ccccc2-c2csc(N=C3NCCCN3)n2)c(C)c1 [Abafungin],activity against Aspergillus fumigatus,[3],active
same,activity against Candida albicans,[4],active
O=C(Nc1ncc(Cc2ccccc2)s1)C1CCCCC1 [B],IC50,[2],1600 nM
O=C(CCC1CCCCC1)Nc1ncc(Cc2ccccc2)s1 [C],IC50,[1],> 10000 nM
same,IC50,[2],700 nM
O=C(Nc1ncc(Cc2cccc3ccsc23)s1)C1CCCCC1 [Compound 17b],times more active than 41F5 against H. capsulatum,[5],~ 2 times
same,times more active than 41F5 against C. neoformans,[6],~ 2 times
O=C(CCC1CCCCC1)Nc1ncc(Cc2cccc3nsnc23)s1 [Compound 20a],activity against H. capsulatum evaluated comparatively at pH 5 and pH 7,[5],No significant differences
same,activity against C. neoformans evaluated comparatively at pH 5 and pH 7,[6],No significant differences
O=C(CCC1CCCCC1)Nc1ncc(Cc2cccc3sccc23)s1 [Compound 22a],times more active than 41F5 against H. capsulatum,[5],~ 2 times
O=C(Nc1ncc(Cc2cccc3sccc23)s1)C1CCCCC1 [Compound 22b],times more active than 41F5 against H. capsulatum,[5],~ 2 times
same,times more active than 41F5 against C. neoformans,[6],~ 2 times
same,IC50,"[6]; Cryptococcus neoformans, read-out: C. neoformans (H99 strain) IC50 [±SD]",370 nM
same,MIC,"[6]; Cryptococcus neoformans, read-out: C. neoformans (H99 strain) MIC",1.25 µM
O=C(CCC1CCCCC1)Nc1ncc(Cc2csc3ccccc23)s1 [Compound 23a],times more active than 41F5 against H. capsulatum,[5],~ 2 times
O=C(Nc1ncc(Cc2cccc3c2CCC3)s1)C1CCCCC1 [Compound 26b],times more active than 41F5 against H. capsulatum,[5],~ 2 times
same,times more active than 41F5 against C. neoformans,[6],~ 2 times
O=C(CCC1CCCCC1)Nc1ncc(Cc2ccnc3ccccc23)s1 [Compound 28a],activity against H. capsulatum evaluated comparatively at pH 5 and pH 7,[5],No significant differences
same,activity against C. neoformans evaluated comparatively at pH 5 and pH 7,[6],No significant differences
O=C(CCC1CCCCC1)Nc1ncc(Cc2ccccn2)s1 [Compound 29a],activity against H. capsulatum evaluated comparatively at pH 5 and pH 7,[5],No significant differences
same,activity against C. neoformans evaluated comparatively at pH 5 and pH 7,[6],No significant differences
O=C(Nc1ncc(Cc2cccnc2)s1)C1CCCCC1 [Compound 31],activity against H. capsulatum evaluated comparatively at pH 5 and pH 7,[5],No significant differences
same,activity against C. neoformans evaluated comparatively at pH 5 and pH 7,[6],No significant differences
O=C(CCC1CCCCC1)Nc1ncc(Cc2ccncc2)s1 [Compound 32a],activity against H. capsulatum evaluated comparatively at pH 5 and pH 7,[5],No significant differences
same,activity against C. neoformans evaluated comparatively at pH 5 and pH 7,[6],No significant differences
O=C(c1cnc(NC(=O)C2CCCCC2)s1)c1cccc2ccccc12 [Compound 36b],times more active than 41F5 against H. capsulatum,[5],~ 2 times
"O=C(Nc1ncc(Cc2cccc3ccccc23)s1)C1CCCCC1 [Compound 41F5, N-[5-(1-naphthalenylmethyl)-2-thiazolyl]cyclohexanecarboxamide]",IC50,[1],400 nM
same,activity against Aspergillus fumigatus,[3],inactive
same,activity against Blastomyces dermatitidis,[7],inactive
same,activity against Candida albicans,[4],inactive
same,IC50,[2],400 nM
